# Results from patent US10766873B2, “Zuclopenthixol hydrochloride derivatives and Ebselen derivatives as ErbB2 inhibitors” (Centre National de la Recherche Scientifique (CNRS), priority 2016, dated 2020).
# Like-named read-outs stand apart in the source and are kept apart here.
# Experiments:
# [1] = target: T1, FERM/ErbB2 interaction (Ezrin FERM domain / juxtamembrane ErbB2 peptide) (Homo sapiens, UniProt P04626); test: AlphaScreen competition assay, FERM/ErbB2 interaction; type: binding; details: for Competition assay FERM-ErbB2 interaction Max inhibition, %: 20 h
# T1 construct: made in house
# Source text: To validate that the Zuclopenthixol hydrochloride (ZU) and its derivatives interact with the juxtamembrane domain of ErbB2, we first analyzed in AlphaScreen® their efficiency to inhibit FERM/ErbB2 interaction in a dose-dependent manner and determined IC50 value. Furthermore, to test the selectivity of those compounds, we tested their ability to disrupt the interaction between the FERM domain and the known ERM binding motif contained in the juxtamembrane region of CD44 as a control.
# AlphaScreen® technology was used to assess the interaction between the Ezrin binding motif (EBM) contained in the juxtamembrane portions of ErbB2 or CD44 with the Ezrin FERM domain. For this purpose the Ezrin FERM domain in fusion with Glutathione-S-Transferase (GST) has been coupled to GSH-coated acceptor beads. […] The AlphaScreen® reagents (Glutathione-coated Acceptor beads and streptavidin-coated Donor beads) were obtained from PerkinElmer.
# The reaction was performed using white 384-well Optiplates (PerkinElmer, Whalham, Mass., USA) in 20 μl (total reaction volume) in a reaction buffer containing PBS, pH 7.4, 5 mM MgCl2 and 0.02% CHAPS. […] 10 μl of a mix solution containing 20 μg/ml Glutathione-coated Acceptor beads and 20 μg/ml streptavidin-coated Donor beads was then added to the wells and incubation was further proceeded for 40 min or overnight in the dark and at room temperature. Light signal was detected with the EnVision® multilabel plate reader (PerkinElmer). All experiments involving AlphaScreen® beads were performed under subdued lighting.
# [2] = test system: SKBR3; test: MTT cell proliferation, SKBR3; type: cell-based, human; details: for EC50: read-out: Cell proliferation at d 3 SKBR3 EC50
# Method: (§1) We then analyzed the ability of ZU and EB1 and their derivatives to decrease the ErbB2-dependent cell proliferation.
# (§2) SKBR3, BT474, MCF-7, MDA-MB-231 and HBMEC cells were treated with the compounds as indicated, and cell proliferation was determined each day during 3 days using an MTT assay. Non treated cells were included as a negative control.
# (§3) A solution of ZU in cis conformation was mixed to a solution of ZU in trans conformation (1:1) to obtain ZU in a 50/50 cis/trans conformation and their respective effects on ErbB2 activation and ErbB2-dependent cell proliferation were analyzed as previously by dot blot analysis using an anti-phosphotyrosine antibody (clone 4G10) and by MTT assays in the ErbB2-overexpressing breast cancer cell line SKBR3, BT474, or HBMEC as a control.
# [3] = test system: BT474; test: MTT cell proliferation, BT474; type: cell-based, human; details: for EC50: read-out: Cell proliferation at d 3 BT474 EC50
# Method: as §1, §2, §3
# [4] = test system: HBMEC; test: MTT cell proliferation, HBMEC control cells; type: cell-based, human
# Method: as §1, §2
# The WT, V777L or V842I ErbB2-transfected cells were treated with 5 or 10 μM of ZU and cell proliferation was determined each day during 3 days using an MTT assay. Non transfected cells were included as a negative control.
# The WT, V777L or V842I ErbB2-transfected cells were treated with 5 or 10 μM of EB1 and cell proliferation was determined each day during 3 days using an MTT assay. Non transfected cells were included as a negative control.
# [5] = target: ErbB2 (Homo sapiens, UniProt P04626); test: ErbB2 phosphorylation in SKBR3 cells, dot blot (4G10); type: cell-based; parameters: endogenous in cells; host or cells: SKBR3; details: for Emax: SK-BR-3, read-out: ErbB2 activation 24 h Max inhibition, %; for effect on ErbB2 phosphorylation/activation (in words): SKBR3
# Method: The ability of ZU and EB1 and their derivatives to inhibit ErbB2 activity in cellulo on a commonly used ErbB2-overexpressing breast cancer cell line SKBR3 was analyzed. SKBR3 were treated 24 h with increasing concentrations of the compounds (0.625-80 μM) and ErbB2 phosphorylation was addressed by dot blot analysis using an anti-phosphotyrosine antibody (clone 4G10). Quantifications show the result of two independent experiments.
# [6] = test system: EGFR/ErBB2 or ErbB3/ErbB2 heterodimers-dependent signalling pathways; test: Ligand-dependent ErbB2 activation (EGF or HRG) in HBMECs, western blot; type: cell-based; details: pre-treatment 1 h or 24 h
# Method: In physiological conditions, ErbB2 activation occurs in heterodimer with the other ErbB family members, such as the EGFR in response to EGF stimulation or ErbB3 in response to heregulin (HRG) stimulation. We therefore addressed whether ZU, EB1 and their derivatives also affected the ligand-dependent physiological ErbB2 activation.
# 16 h-starved HBMECs cells were pre-treated or not for 1 h or 24 h with ZU, […] and their derivatives or AG1478 before EGF (50 ng/mL) or HRG1β (100 ng/mL) stimulation for 5 minutes. The activation of EGFR/ErBB2 or ErbB3/ErbB2 heterodimers-dependent signalling pathways was then analysed by western blot experiments using pAkt, Akt, pERK, ERK or 4G10 antibodies.
# [7] = SKBR3, 24 h, read-out: ErbB2 activation 24 h EC50
# [8] = Homo sapiens, SK-BR-3, 72 h, day 3
# [9] = Homo sapiens, BT-474, 72 h, day 3
# [10] = Homo sapiens, 72 h, day 3, read-out: Cell proliferation at d 3 HBMEC EC50
# [11] = SKBR3, 24 h, read-out: IC50 ErbB2 phosphorylation
# [12] = Homo sapiens, 72 h, read-out: Cell proliferation at d 3 HBMEC EC50, μM
Compound,inhibition of FERM/ErbB2 interaction (in words) [1],"Competition assay FERM-ErbB2 interaction Max inhibition, % [1] [%]","Cell proliferation at d 3 SKBR3 Max inhibition, % ([2]; day 3) [%]","Cell proliferation at d 3 BT474 Max inhibition, % ([3]; day 3) [%]","Cell proliferation at d 3 HBMEC Max inhibition, % ([4]; day 3) [%]","EC50 [5, 7] [µM]","EC50 [2, 8] [µM]","EC50 [3, 9] [µM]","Emax ([5]; SKBR3, 24 h, 0.625-80 μM) [%]",other results
9-(3-(4-(2-hydroxyethyl)piperazinyl)propylidene)-thioxanthene [ZU3],inhibited FERM/ErbB2 interaction in a specific and dose-dependent manner,28,32.6,31.5,0,32.4,,,,"reduction of SKBR3 proliferation ([2]; 20 μM): 30%; EC50 ([2]; day 3): 15.5 µM; reduction of BT474 proliferation ([3]; 20 μM): 30%; EC50 ([3]; day 3): 4.2 µM; effect on HBMEC proliferation (in words) ([4]; 20 μM): without any effect; ErbB2 activation 24 h Max inhibition, % ([5]; SKBR3, 24 h, 0.625-80 μM): 75.12%"
"OCCN1CCN(CC/C=C2\c3ccccc3Sc3ccc(Cl)cc32)CC1 (single isomer, unassigned) [trans isomer]",,,,,,,,,,effect on SKBR3 proliferation (in words) ([2]; 10 μM): no significant inhibitory effect; effect on BT474 proliferation (in words) ([3]; 10 μM): no significant inhibitory effect
COc1cc2ncnc(Nc3cccc(Cl)c3)c2cc1OC [AG1478],,,,,,,,,,ligand-dependent ErbB2 activation induced by EGF or HRG stimulation (in words) [6]: strongly blocked
Cc1ccc(-n2sc3ccccc3c2=O)cc1 [EB2],,,34.1,20,29.5,18.2,9.3,11.7,43.8,"effect on SKBR3 proliferation (in words) ([2]; 5 μM): did not significantly decreased; effect on HBMEC proliferation (in words) ([4]; 5 μM): without any effect; EC50 [4, 10]: 11.5 µM; IC50 [5, 11]: 18 to 20 µM"
O=c1c2ccccc2sn1-c1ccc(Cl)cc1 [EB3],,,63.5,82.7,75.1,19.5,8.9,6.9,66.4,"effect on SKBR3 proliferation (in words) ([2]; 7 μM): did not significantly decreased; reduction of BT474 proliferation ([3]; 7 μM, day 2): 30%; effect on HBMEC proliferation (in words) ([4]; 7 μM): without any effect; EC50 [4, 10]: 2770 µM; IC50 [5, 11]: 18 to 20 µM"
"O=c1c2ccccc2[se]n1-c1ccccc1 [EBa, reference compound]",,,,,,40.7,,,15.6,"ligand-dependent ErbB2 activation induced by EGF or HRG stimulation (in words) [6]: did not block; reduction of ErbB2 phosphorylation ([5]; SKBR3, concentration of 10 μM): 15%"
CN1CCN(CC/C=C2/c3ccccc3Sc3ccc(S(=O)(=O)N(C)C)cc32)CC1 [ZU2],inhibited FERM/ErbB2 interaction in a specific and dose-dependent manner,16,,,,31.6,,,74.2,"IC50 [5, 11]: 5 to 35 µM"
"CCOC(=O)C1CCN(CCC=C2c3ccccc3Sc3ccccc32)CC1 [ZU4, 9-(3-(4-(ethylacetate)piperidine)propylidene)-thioxanthene]",inhibited FERM/ErbB2 interaction in a specific and dose-dependent manner,36,,,,47.9,,,27.5,effect on ErbB2 phosphorylation/activation (in words) [5]: lower decrease
"CC(=O)OCCN1CCN(CC/C=C2/c3ccccc3Sc3ccc(Cl)cc32)CC1 [ZU5, (Z)-2-(4-(3-(2-chloro-9H-thioxanthen-9-ylidene)propyl)piperazin-1-yl)ethylacetate]",inhibited FERM/ErbB2 interaction in a specific and dose-dependent manner,41,28.2,30.8,24.5,43.6,3.5,17.8,97.5,"reduction of SKBR3 proliferation ([2]; 1 and 5 μM, day 3): 60%; reduction of BT474 proliferation ([3]; 1 and 5 μM, day 3): 33%; effect on HBMEC proliferation (in words) ([4]; 1 and 5 μM): without any effect; EC50 [4, 12]: 21.9 µM; IC50 [5, 11]: 5 to 35 µM"
"CCOC(=O)C1CCN(CCC=C2c3ccccc3Oc3ccccc32)CC1 [ZU6, ethyl 1-(3-(9H-xanthen-9-ylidene)propyl)piperidine-4-carboxylate]",,,,,,35.5,,,36.2,effect on ErbB2 phosphorylation/activation (in words) [5]: lower decrease
"NCCN1CCN(CC/C=C2/c3ccccc3Sc3ccc(C(F)(F)F)cc32)CC1 [ZUc, (Z)-2-(4-(3-(2-(trifluoromethyl)-9H-thioxanthen-9-ylidene)propyl)piperazin-1-yl) Ethanamine]",,45,78.9,94.9,68.8,,0.34,0.23,90.8,"toxicity on control cells (in words) [4]: non-specific toxic effects; EC50 [4, 12]: 0.14 µM; EC50 [5]: 5.13 µM; IC50 [5]: 5 to 35 µM"
"FCCN1CCN(CC/C=C2/c3ccccc3Sc3ccc(C(F)(F)F)cc32)CC1 [ZUd, (Z)-1-(2-fluoroethyl)-4-(3-(2-(trifluoromethyl)-9H-thioxanthen-9-ylidene)propyl) Piperazine]",,54,86.4,86,,,6.7,16.5,51.4,"reduction of SKBR3 proliferation ([2]; 20 μM, day 3): 86%; reduction of BT474 proliferation ([3]; 20 μM, day 3): 86%; toxicity on control cells (in words) [4]: non-specific toxic effects; EC50 [4, 12]: 16.3 µM; inhibition at 20 µM ([4]; Homo sapiens, 72 h, 20 μM, day 3): 90%; EC50 [5]: 20.4 µM; IC50 [5]: 5 to 35 µM"
"O=C(O)C1CCN(CCC=C2c3ccccc3Oc3ccccc32)CC1 [ZUe, 1-(3-(9H-xanthen-9-ylidene)propyl)piperidine-4-carboxylic acid]",,,,,,,,,0,effect on ErbB2 phosphorylation/activation (in words) [5]: no effect
"O=C(O)C1CCN(CCC=C2c3ccccc3Sc3ccccc32)CC1 [ZUf, 1-(3-(9H-thioxanthen-9-ylidene)propyl)piperidine-4-carboxylic acid]",,11,,,,,,,0,effect on ErbB2 phosphorylation/activation (in words) [5]: no effect
"CS(=O)(=O)CCNCc1ccc(-c2ccc3ncnc(Nc4ccc(OCc5cccc(F)c5)c(Cl)c4)c3c2)o1 [lapatinib, reference compound]",did not inhibit,,,,,,,,,
